Values after ≈ are worked out from the molar mass of the structure shown.
What was measured:
Assay type in all cases: functional
[1] = tested on: Staphylococcus aureus; test: Antibacterial activity against Staphylococcus aureus TS5337 harboring ddlA Pro178Ser mutation after 20 hrs; settings: TS5337, 20 h
[2] = tested on: Staphylococcus aureus; test: Antibacterial activity against Staphylococcus aureus RN4220 after 20 hrs; settings: RN4220, 20 h
[3] = tested on: Staphylococcus aureus; test: Antibacterial activity against Staphylococcus aureus TS2921 harboring ddlA Asp102Asn mutation and coexpressing pSddlA which complements temperature sensitivity after 20 hrs; settings: TS2921, 20 h
[4] = tested on: Staphylococcus aureus; test: Antibacterial activity against Staphylococcus aureus TS10007 harboring ddlA Asp39Asn mutation after 20 hrs; settings: TS10007, 20 h
[5] = tested on: Staphylococcus aureus; test: Antibacterial activity against Staphylococcus aureus TS2921 harboring ddlA Asp102Asn mutation in presence of 100 mM D-Ala-D-Ala, which complements temperature sensitivity after 20 hrs; settings: TS2921, 20 h
[6] = tested on: Staphylococcus aureus; test: Antibacterial activity against Staphylococcus aureus TS2921 harboring ddlA Asp102Asn mutation after 20 hrs; settings: TS2921, 20 h
[7] = tested on: Staphylococcus aureus; test: Antibacterial activity against Staphylococcus aureus TS2921 harboring ddlA Asp102Asn mutation in fifth-instar silkworm larva infection model assessed as compound concentration per gram of larva […] after 48 hrs post dose at 27 degC
[8] = tested on: Staphylococcus aureus; test: Antibacterial activity against Staphylococcus aureus TS10007 harboring ddlA Asp39Asn mutation in fifth-instar silkworm larva infection model assessed as compound concentration per gram of larva […] after 48 hrs post dose at 27 degC
[9] = tested on: Staphylococcus aureus; test: Antibacterial activity against Staphylococcus aureus TS5337 harboring ddlA Pro178Ser mutation in fifth-instar silkworm larva infection model assessed as compound concentration per gram of larva […] after 48 hrs post dose at 27 degC
[10] = tested on: Staphylococcus aureus; test: Antibacterial activity against Staphylococcus aureus RN4220 in fifth-instar silkworm larva infection model assessed as compound concentration per gram of larva […] after 48 hrs post dose at 27 degC

| SMILES | MIC [1] [µg/mL] | MIC [2] [µg/mL] | MIC [3] [µg/mL] | MIC [4] [µg/mL] | MIC [5] [µg/mL] | MIC [6] [µg/mL] | ED50 [7] [µg] | ED50 [8] [µg] | ED50 [9] [µg] | ED50 [10] [µg] |
| --- | --- | --- | --- | --- | --- | --- | --- | --- | --- | --- |
| CCn1cc(C(=O)O)c(=O)c2cc(F)c(N3CCNCC3)cc21 [NORFLOXACIN] | 0.63 (≈ 1.97 µM) | 0.63 (≈ 1.97 µM) | 0.63 (≈ 1.97 µM) | 0.63 (≈ 1.97 µM) | 0.63 | 0.63 (≈ 1.97 µM) | – | – | – | – |
| CN[C@H](CC(C)C)C(=O)N[C@H]1C(=O)N[C@@H](CC(N)=O)C(=O)N[C@H]2C(=O)N[C@H]3C(=O)N[C@H](C(=O)N[C@H](C(=O)O)c4cc(O)cc(O)c4-c4cc3ccc4O)[C@H](O)c3ccc(c(Cl)c3)Oc3cc2cc(c3O[C@@H]2O[C@H](CO)[C@@H](O)[C@H](O)[C@H]2O[C@H]2C[C@](C)(N)[C@H](O)[C@H](C)O2)Oc2ccc(cc2Cl)[C@H]1O [VANCOMYCIN] | 0.4 (≈ 0.276 µM) | 0.4 (≈ 0.276 µM) | 0.4 (≈ 0.276 µM) | 0.4 (≈ 0.276 µM) | 1.6 | 0.4 (≈ 0.276 µM) | 0.43 | 0.25 | 0.45 | 0.53 |
| CN(C)[C@@H]1C(O)=C(C(N)=O)C(=O)[C@@]2(O)C(O)=C3C(=O)c4c(O)cccc4[C@@](C)(O)[C@H]3C[C@@H]12 [TETRACYCLINE] | 0.063 (≈ 0.142 µM) | 0.063 (≈ 0.142 µM) | 0.063 (≈ 0.142 µM) | 0.063 (≈ 0.142 µM) | 0.031 | 0.063 (≈ 0.142 µM) | 0.7 | 0.35 | 0.75 | 0.68 |
| O=C(N[C@H](CO)[C@H](O)c1ccc([N+](=O)[O-])cc1)C(Cl)Cl [CHLORAMPHENICOL] | 3.1 (≈ 9.59 µM) | 6.3 (≈ 19.5 µM) | – | 3.1 (≈ 9.59 µM) | 3.1 | 3.1 (≈ 9.59 µM) | 5.3 | – | – | 4.9 |
| N[C@@H]1CONC1=O [CYCLOSERINE] | 25 (≈ 245 µM) | 100 (≈ 979 µM) | > 100 | 50 (≈ 490 µM) | 50 | 12.5 (≈ 122 µM) | <2.2 | <2.2 | 5.4 | 40 |
| CO[C@@]1(NC(=O)CSC(F)F)C(=O)N2C(C(=O)O)=C(CSc3nnnn3CCO)CO[C@@H]21 [FLOMOXEF] | 0.2 (≈ 0.403 µM) | 0.4 (≈ 0.806 µM) | 0.4 (≈ 0.806 µM) | 0.4 (≈ 0.806 µM) | 0.4 | 0.2 (≈ 0.403 µM) | 0.031 | 0.048 | 0.031 | 0.054 |

— ChEMBL document CHEMBL1649581, “Evaluation of target specificity of antibacterial agents using Staphylococcus aureus ddlA mutants and D-cycloserine in a silkworm infection model” (2009)
